Laboratory results published in PMC3608532, “Characterization of a Single-Chain Variable Fragment Recognizing a Linear Epitope of Aβ: A Biotechnical Tool for Studies on Alzheimer’s Disease?” (PLoS ONE, 2013).

Key:
Aβ(3-8) = test: SPR binding kinetics to immobilized Aβ(3-8)
Protocol: (§1) Binding kinetics were determined by SPR using a Biacore™ X (GE Healthcare, UK). Synthetic Aβ peptides were dissolved in 10 mM NaAc, pH 4.0. The CM5 sensor chip surface (GE Healthcare, UK) was activated using N-ethyl-N′-3 […] carbodiimide (EDC) and N-hydroxysuccinimide (NHS) chemistry followed by 2-(2-pyridinyldithio)ethaneamine hydrochloride (PDEA), in order to introduce a reactive thiol group. Aβ was coupled via the C-terminal cysteine to the chip at a flow rate of 5 µl/min, and the remaining active groups were blocked by injecting cysteine. The immobilization procedure was performed according to manufacturer’s recommendation. All kinetic analyses were performed at a flow rate of 20 µl/min in PBS. Varying concentrations of scFv-IC16 (10 to 5000 nM) and IC16 (10 to 1000 nM) were injected. […] When required, the surface was regenerated by injecting 20 µl 50 mM glycine, pH 11.0. The data evaluation was performed using Biaevaluation Software 4.1.1. ScFv-IC16 data were fitted according to the Langmuir 1∶1 binding model, whereas IC16 data were fitted according to the bivalent binding model. Standard errors of equilibrium dissociation constants (KD) were calculated using standard errors of the corresponding association and dissociation rate constants.

Aβ(pE3-8) = test: SPR binding kinetics to immobilized Aβ(pE3-8); conditions: SPR; two N-terminal residues truncated, E3 modified into pyroE3
Protocol: as §1

Aβ(1-42) monomers = test: ELISA binding to Aβ(1-42) monomers; set-up: species or system human; conditions: 250 ng/well
Protocol: 1 mg of Aβ(1-42) or N-terminally/C-terminally biotinylated Aβ(1-42) was dissolved in 1 ml 1,1,1,3,3,3-hexafluorosiopropanol (HFIP) and incubated overnight at room temperature. Afterwards, Aβ(1-42) was mixed in the favored ratio with N-terminally/C-terminally biotinylated Aβ(1-42) and aliquoted. HFIP was evaporated using a SpeedVac (Concentrator 5301, Eppendorf, Germany) at room temperature for 30 min. To evaporate remaining HFIP, the sample was incubated overnight at room temperature with an open lid.
The preparation of Aβ(1-42) monomers and oligomers was carried out by size exclusion chromatography (SEC) as already described by Johansson et al with minor modifications. 250 µg of Aβ peptide was dissolved in 130 µl SEC buffer (50 mM NaPi, pH 7.4; 150 mM NaCl; 0.6% Tween-20) and briefly centrifuged (1 min, 16 100×g, room temperature) to remove insoluble fibrillar material. 100 µl of the supernatant was applied on a Superdex75 10/300 column (GE Healthcare, UK) connected to an Äkta purifier system (GE Healthcare, UK). The sample was eluted at a flow rate of 0.6 ml per min at room temperature and detected at wavelengths of 214, 250 and 278 nm. […] The concentration of the Aβ preparations was determined using the Micro BCA Protein Assay Kit (Thermo Scientific, Waltham, MA, USA). […] The samples were measured at a wavelength of 570 nm with a Polarstar Optima plate reader (BMG, Ortenberg, Germany). […]

[1] = SPR Biacore X, CM5 chip, PBS, 25°C, global fit, scFv-IC16 Langmuir 1:1 model, IC16 bivalent model, ± standard error, SEM

Question: How did the Kd (Aβ(3-8); SPR Biacore X, CM5 chip, PBS, 25°C, global fit, scFv-IC16 Langmuir 1:1 model, IC16 bivalent model) turn out when “scFv-IC16: single-chain variable fragment (VH-(Gly4Ser)3-VL, His6- and Myc-tag) derived from Aβ binding monoclonal antibody IC16, expressed in E. coli” was run?
Answer: 5.25 µM

Question: And the k off (Aβ(3-8); [1])?
Answer: 43.9±0.3×10^−3 s^-1

Question: What about the k on (Aβ(3-8); [1]) of the same substance?
Answer: 8.36±0.5×10^3 M^-1 s^-1

Question: What about the Kd (Aβ(3-8); SPR, A2 of Aβ truncated) of the same substance?
Answer: > 5 µM

Question: What about the “binding to Aβ(pE3-8)” value (Aβ(pE3-8)) of the same substance?
Answer: no binding could be detected

Question: And the “ELISA binding to Aβ monomers, C-terminal biotin tag” value (Aβ(1-42) monomers; 100% C-terminally biotinylated monomers, p = 0.038 versus N-bio oligomers)?
Answer: very similar to Aβ oligomers

Question: What about the “ELISA binding to Aβ monomers, N-terminal biotin tag” value (Aβ(1-42) monomers; 100% N-terminally biotinylated monomers on streptavidin plate) of the same substance?
Answer: not detected
